From ChEMBL document CHEMBL1201862, “PubChem BioAssay data set” (2004)
Active and inactive are the calls of the source.

Legend:
[1] = HepG2 cell cytotoxicity, dose response, cytotoxicity control, plate reader, cherry-pick, antagonist series (AID 743416); type: functional, cell-based
[2] = LGR2 antagonists, dose response, cell-based, HEK293, CRE-luciferase reporter, cherry pick, set 2 (AID 743343); type: functional;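 also: transfected cells were stimulated with diluted bursicon conditioned medium after compound addition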
[3] = MC4R antagonists, dose response, counter-screen for LGR2 antagonist project, cell-based, plate reader, cherry pick (AID 743444); type: functional;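 also: transfected HEK 293 cells stimulated with alpha-MSH peptide; potency of inhibitors of the alpha-MSH evoked signal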
[4] = Luminescence Cell-Based Dose Confirmation HTS to Identify Activators of 5'UTR Stem-Loop Driven Alpha-Synuclein mRNA Translation in H4 Neuroglioblastoma Cells. [Related pubchem assays: 1829 (Project Summary), 1814 (Primary HTS)]; type: functional
[5] = Luminescence Cell-Based Dose Response HTS to Identify Activators of Luciferase Translation or Activity in H4 […] Cells. [Related pubchem assays: 1829 (Project Summary), 1814 (Primary HTS)]; type: functional
[6] = system: H4; test: Luminescence Cell-Based Dose Response HTS to Identify Activators of 5'UTR Stem-Loop Driven Prion Protein mRNA Translation in H4 Neuroglioblastoma Cells. [Related pubchem assays: 1829 (Project Summary), 1814 (Primary HTS)]; type: functional; settings: Homo sapiens
[7] = biological target: T1, Methionyl-tRNA synthetase, putative (Trypanosoma brucei brucei, UniProt Q38C91); type: functional, Trypanosoma brucei brucei strain 927/4 GUTat10.1
T1 sequence (Q38C91 whole entry): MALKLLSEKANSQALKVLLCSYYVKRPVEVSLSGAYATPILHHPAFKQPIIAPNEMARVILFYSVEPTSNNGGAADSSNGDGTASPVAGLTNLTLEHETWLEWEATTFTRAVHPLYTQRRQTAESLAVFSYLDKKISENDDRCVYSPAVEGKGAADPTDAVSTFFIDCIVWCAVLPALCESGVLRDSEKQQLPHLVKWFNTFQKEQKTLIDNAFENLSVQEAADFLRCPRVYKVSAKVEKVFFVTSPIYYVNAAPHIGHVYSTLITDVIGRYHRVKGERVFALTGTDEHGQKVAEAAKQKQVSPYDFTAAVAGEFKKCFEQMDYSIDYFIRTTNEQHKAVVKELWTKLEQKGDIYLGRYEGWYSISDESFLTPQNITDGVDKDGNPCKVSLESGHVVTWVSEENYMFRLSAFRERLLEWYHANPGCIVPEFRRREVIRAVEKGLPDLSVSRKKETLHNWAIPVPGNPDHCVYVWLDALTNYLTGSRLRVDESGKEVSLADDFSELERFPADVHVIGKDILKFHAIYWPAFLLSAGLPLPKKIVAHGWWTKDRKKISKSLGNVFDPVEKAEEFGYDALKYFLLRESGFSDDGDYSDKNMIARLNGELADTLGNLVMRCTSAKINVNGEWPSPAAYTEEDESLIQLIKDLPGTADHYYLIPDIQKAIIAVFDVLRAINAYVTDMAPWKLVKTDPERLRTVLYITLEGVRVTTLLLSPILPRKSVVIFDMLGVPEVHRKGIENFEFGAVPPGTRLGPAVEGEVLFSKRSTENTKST

[8] = Counterscreen for inhibitors of Trypanosoma brucei methionyl tRNA synthetase (MetRS): Luminescence-based cell-based high throughput dose response assay to identify compounds that are cytotoxic to Jurkat human T lymphocyte cells.; type: functional
[9] = biological target: T1, Methionyl-tRNA synthetase, putative; type: functional, Trypanosoma brucei brucei strain 927/4 GUTat10.1; remark: listed apart in the source
[10] = system: Streptococcus sp. 'group A'; test: growth inhibition of control SK(-) GAS strain, dose response, counter-screen for streptokinase expression inhibitor project, luminescence, kanamycin, BacTiterGlo, confirmation (AID 1900); type: functional, organism-based
[11] = system: Vero; test: host cell cytotoxicity of antiviral hits, dose response, cytotoxicity control for West Nile virus antiviral project, secondary assay (AID 1650); type: functional; settings: Chlorocebus sabaeus
[12] = biological target: T2, Streptokinase A (Streptococcus pyogenes serotype M1, UniProt P10520); test: S. pyogenes streptokinase expression inhibitors, potency, dose response, plasminogen activation absorbance, OD405 (AID 1914); type: functional, Streptococcus pyogenes M1 GAS;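 also: secreted streptokinase activity via plasminogen activation per viability signal from cell pellet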
T2 sequence (P10520 whole entry): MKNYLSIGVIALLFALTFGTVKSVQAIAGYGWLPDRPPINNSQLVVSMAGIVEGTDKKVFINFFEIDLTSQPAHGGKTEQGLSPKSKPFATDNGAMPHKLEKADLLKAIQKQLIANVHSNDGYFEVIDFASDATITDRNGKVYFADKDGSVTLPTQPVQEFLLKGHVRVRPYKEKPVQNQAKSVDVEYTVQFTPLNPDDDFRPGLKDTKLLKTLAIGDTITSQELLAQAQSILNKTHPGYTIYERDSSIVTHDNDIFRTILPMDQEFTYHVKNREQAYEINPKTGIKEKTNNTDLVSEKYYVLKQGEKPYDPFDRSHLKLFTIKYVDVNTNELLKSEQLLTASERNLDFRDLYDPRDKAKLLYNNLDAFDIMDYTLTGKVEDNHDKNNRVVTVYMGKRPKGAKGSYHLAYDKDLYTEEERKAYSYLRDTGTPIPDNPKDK

[13] = inhibitors of intracellular T. cruzi replication, confirmation, NIH3T3 host cells, beta-gal luminescence (AID 2044); type: functional, cell-based;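 also: intracellular parasites grown in NIH/3T3 mouse fibroblasts as host cells; luminescent beta-galactosidase reporter signal from transgenic T. cruzi replicating inside host cells; inhibitors lower the luminescence signal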
[14] = cytotoxicity toward NIH3T3 fibroblasts, dose response, counter-screen, cell-based, ATP luminescence, mouse fibroblasts (AID 2010); type: functional;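 also: cells exposed to compound for about 90 hours before reading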
[15] = system: Streptococcus; test: Group A Streptococcus viability loss, dose response, counter-screen for streptokinase expression inhibitor project, luminescence, BacTiterGlo (AID 1915); type: functional, organism-based;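 also: potency for reduction of bacterial viability or growth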
[16] = Luminescence Cell-Based Dose Retest to Confirm Inhibitors of Cancer Stem Cells. [Related pubchem assays (depositor defined):AID2717, AID2721]; type: functional; settings: Homo sapiens
[17] = biological target: T3, Heat shock factor protein 1 (Mus musculus, UniProt P38532); test: HSF1 potentiators in luciferase reporter cells, confirmation, cell-based, NIH3T3, luminescence, dose retest (AID 435004); type: functional;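 also: stress induced by proteasome inhibitor MG132 added 30 min after compound; luciferase reporter driven by HSF1 response element in NIH3T3 cells; actives raise luminescence as potentiators of the MG132 stress response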
T3 sequence (P38532 whole entry): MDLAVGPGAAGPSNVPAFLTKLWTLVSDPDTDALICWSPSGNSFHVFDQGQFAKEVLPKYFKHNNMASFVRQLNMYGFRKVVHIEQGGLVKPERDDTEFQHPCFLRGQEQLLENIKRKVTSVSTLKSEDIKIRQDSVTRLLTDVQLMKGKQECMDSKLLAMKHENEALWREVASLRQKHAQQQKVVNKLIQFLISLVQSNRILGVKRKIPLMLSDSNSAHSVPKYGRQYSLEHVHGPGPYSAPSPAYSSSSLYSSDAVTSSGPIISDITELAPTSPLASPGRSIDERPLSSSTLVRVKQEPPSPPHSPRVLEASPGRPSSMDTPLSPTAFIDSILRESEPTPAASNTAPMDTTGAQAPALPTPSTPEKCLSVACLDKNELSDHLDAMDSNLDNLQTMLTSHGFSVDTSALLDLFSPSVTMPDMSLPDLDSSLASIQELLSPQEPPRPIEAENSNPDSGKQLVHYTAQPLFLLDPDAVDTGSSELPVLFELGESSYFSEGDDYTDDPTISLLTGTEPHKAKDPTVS

[18] = biological target: Paired box protein Pax-8 (Homo sapiens, UniProt Q06710); test: inhibitors of PAX8-driven TPO luciferase reporter, dose response, RMG-I cells, cherry-pick (AID 687027); type: functional, cell-based;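 also: luciferase reporter driven by Pax8 target thyroperoxidase promoter measured by SteadyGlo luminescence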
[19] = biological target: T4, Leucine aminopeptidase (Plasmodium falciparum 3D7, UniProt Q8IL11); test: P. falciparum M17LAP inhibitors, primary screen, biochemical, fluorogenic H-Leu-NHMec substrate, 1536-well (AID 1619); type: functional
T4 sequence (Q8IL11 whole entry): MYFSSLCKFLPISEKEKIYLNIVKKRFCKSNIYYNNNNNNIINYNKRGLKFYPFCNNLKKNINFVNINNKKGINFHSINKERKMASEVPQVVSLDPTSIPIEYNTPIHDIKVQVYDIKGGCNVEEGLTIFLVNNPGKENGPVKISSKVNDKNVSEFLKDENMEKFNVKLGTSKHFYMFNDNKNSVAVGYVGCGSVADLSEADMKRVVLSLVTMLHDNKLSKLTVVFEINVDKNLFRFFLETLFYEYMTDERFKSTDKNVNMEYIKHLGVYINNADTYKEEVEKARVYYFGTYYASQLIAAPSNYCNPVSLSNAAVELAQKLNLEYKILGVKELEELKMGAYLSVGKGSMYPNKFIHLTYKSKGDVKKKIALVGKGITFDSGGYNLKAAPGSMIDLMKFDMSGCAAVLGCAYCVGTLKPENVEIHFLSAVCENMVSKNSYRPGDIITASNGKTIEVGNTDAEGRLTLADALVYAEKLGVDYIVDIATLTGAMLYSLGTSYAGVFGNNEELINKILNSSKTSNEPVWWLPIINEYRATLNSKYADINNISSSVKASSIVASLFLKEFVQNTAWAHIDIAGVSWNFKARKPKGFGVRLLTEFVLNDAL

[20] = biological target: T5, Estrogen receptor (Homo sapiens, UniProt P03372);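 also: potency for inhibiting coactivator peptide recruitment to the receptor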
T5 sequence (P03372 whole entry): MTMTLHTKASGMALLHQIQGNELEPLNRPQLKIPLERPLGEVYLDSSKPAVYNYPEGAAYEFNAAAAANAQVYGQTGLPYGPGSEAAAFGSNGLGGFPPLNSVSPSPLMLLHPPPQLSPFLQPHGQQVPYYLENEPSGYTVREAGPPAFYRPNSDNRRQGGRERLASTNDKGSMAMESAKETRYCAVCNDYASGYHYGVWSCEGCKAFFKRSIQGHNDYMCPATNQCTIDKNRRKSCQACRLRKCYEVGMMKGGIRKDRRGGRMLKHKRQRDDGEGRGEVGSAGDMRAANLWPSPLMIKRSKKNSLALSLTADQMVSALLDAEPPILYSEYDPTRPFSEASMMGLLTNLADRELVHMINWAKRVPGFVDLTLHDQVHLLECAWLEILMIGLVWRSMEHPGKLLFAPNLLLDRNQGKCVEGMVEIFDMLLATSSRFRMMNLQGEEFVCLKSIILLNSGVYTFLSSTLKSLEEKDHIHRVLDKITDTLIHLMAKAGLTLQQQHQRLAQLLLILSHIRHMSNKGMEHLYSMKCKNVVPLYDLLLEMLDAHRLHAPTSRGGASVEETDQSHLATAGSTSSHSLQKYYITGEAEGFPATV

[21] = P. falciparum 3D7-ScDHODH growth inhibitors, dose response, SYBR Green, dry powder samples (AID 1159570); type: functional, cell-based;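 also: parasite growth measured after 72 hours of compound exposure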
[22] = P. falciparum Dd2 growth inhibitors, dose response, SYBR Green, cherry-picked samples (AID 1159567); type: functional, cell-based
[23] = P. falciparum Dd2 growth inhibitors, dose response, SYBR Green, dry powder samples (AID 1159566); type: functional, cell-based;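 also: potency for growth inhibition with lower SYBR green DNA signal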
[24] = P. falciparum ATP4 D1247Y mutant growth inhibitors, dose response, NITD609-resistant line, SYBR Green, dry powder (AID 1159571); type: functional, cell-based;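 also: parasites synchronized at ring stage by sorbitol before testing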

Sequence of Paired box protein Pax-8 (Q06710 whole entry): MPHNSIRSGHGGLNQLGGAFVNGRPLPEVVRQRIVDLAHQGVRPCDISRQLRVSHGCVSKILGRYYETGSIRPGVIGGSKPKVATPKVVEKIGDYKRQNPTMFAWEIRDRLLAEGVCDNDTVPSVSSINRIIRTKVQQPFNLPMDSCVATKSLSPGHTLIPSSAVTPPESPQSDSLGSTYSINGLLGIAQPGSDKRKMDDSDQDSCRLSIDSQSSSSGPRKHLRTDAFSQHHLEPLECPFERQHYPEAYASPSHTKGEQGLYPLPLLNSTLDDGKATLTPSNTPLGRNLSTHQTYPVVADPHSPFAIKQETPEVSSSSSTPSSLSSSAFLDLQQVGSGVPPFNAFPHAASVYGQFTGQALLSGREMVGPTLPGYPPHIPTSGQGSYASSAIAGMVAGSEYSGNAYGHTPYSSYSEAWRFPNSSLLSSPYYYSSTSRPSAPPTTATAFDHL

COc1ccc(-n2nnnc2-c2nc3ccccc3s2)cc1
AC50 [1]: > 52 µM (inactive)
AC50 [2]: 6.52 µM (active)
AC50 [3]: 7.96 µM (active)

Cc1ccccc1Oc1cc(NC(=O)Cn2cnc([N+](=O)[O-])c2)cc([N+](=O)[O-])c1
EC50 [4]: > 120 µM (not active)
EC50 [5]: > 120 µM (not active)
EC50 [6]: > 120 µM (not active)
IC50 [7]: 52.5 µM (inactive)
IC50 [8]: 37.3 µM (inactive)
IC50 [9]: 51.3 µM (inactive)

O=C(Nc1cccc(Cl)c1)Nc1csc([N+](=O)[O-])c1
EC50 [10]: 9.68 µM (active)
CC50 [11]: > 100 µM (active)
EC50 [12]: > 150 µM (not active)
EC50 [13]: 3.47 µM (active)
EC50 [14]: > 60 µM (not active)
EC50 [15]: 15.3 µM (active)
AC50 [16]: 4.34 µM (active)
EC50 [17]: 31.6 µM (active)
AC50 [18]: 11.6 µM (active)

CC(=O)NS(=O)(=O)c1ccc(NC(=O)c2cc(-c3ccc(C)cc3)nc3ccccc23)cc1
IC50 [19]: 13.7 µM (active)

CCOC(=O)c1c(NC(=O)CSc2nnc(C)c(=O)[nH]2)sc2c1CCC2
IC50 [19]: 7.77 µM (active)

O=C(NCC1CCCO1)C(=Cc1cccc([N+](=O)[O-])c1)C(=O)NCC1CCCO1 (centres undefined)
CC50 [11]: 23.6 µM (active)
AC50 [18]: 3.43 µM (active)

O=C(Nc1cccc(-c2cnc3ccccc3n2)c1)c1cccc(NC(=O)c2ccco2)c1
IC50 [20]: 13.1 µM (active)

CCOC(=O)c1c(NC(=O)CCS(=O)(=O)c2ccccc2)sc2c1CCN(C(C)C)C2
CC50 [11]: 69.1 µM (active)

CC1(C)CC(=O)c2cnc(NCC3CCCO3)nc2C1 (centres undefined)
IC50 [20]: > 50 µM (not active)

COc1ccc(-c2ccccc2[C@H]2[C@@H](C#N)N(C(=O)C3CCCCC3)[C@H]2CO)cc1
AC50 [21]: 1.38 µM (active)
AC50 [22]: 1.03 µM (active)
AC50 [23]: 1.52 µM (active)
AC50 [24]: 5.94 µM (active)
